Values after ≈ are worked out from the molar mass of the structure shown. Like-named read-outs stand apart in the source and are kept apart here.
Experiments:
Format in all cases: cell-based
Staphylococcus aureus = assay: Broth microdilution MIC assay, Staphylococcus aureus
Experimental: (§1) This example illustrates evaluating in vitro activity of (Z)-2-(3,6-dimethylhepta-2,5-dien-1-yl)-5-pentylbenzene-1,3-diol (Example 1, “M194”) against gram-positive and gram-negative bacteria. In this study, in vitro activity was determined against a diverse panel of Gram-positive and Gram-negative bacteria associated with a variety of infections. Broth microdilution MIC assays were conducted following guidelines recommended by the Clinical and Laboratory Standards Institute (CLSI; 1-3).
(§2) The compound M194 was provided in powder form and initially stored at room temperature prior to testing. A stock solution of M194 in DMSO/DMSO solvent/diluent was made at 101× the final testing concentration and tested over ranges of 0.06-64 μg/mL.
(§3) Test organisms consisted of isolates from the American Type Culture Collection (ATCC; Manassas, VA) and the Micromyx Repository (MMX; Kalamazoo, MI). Upon initial receipt at Microbiologics, the organisms were sub-cultured onto an appropriate agar medium and incubated under atmospheric conditions required for growth. Following incubation for 18 to 24 hr at 35° C. in the appropriate atmosphere, colonies were harvested from these plates and cell suspensions were prepared and frozen at −80° C. with a cryoprotectant. Prior to testing, isolates were streaked from frozen vials onto the appropriate agar. Unless otherwise noted, Trypticase Soy Agar with 5% sheep blood (Remel; Lenexa, KS; Lot No. 693244) was used and inoculated plates were incubated at 35° C. overnight in ambient atmosphere. Haemophilus influenzae isolates were streaked onto Chocolate agar (Becton Dickinson [BD]; Sparks, MD; Lot No. 3157581). Streptococcus spp., Moraxella spp., and H. influenzae inoculated plates were incubated at 35° C. overnight in 5% CO2.
(§4) Organisms were tested in the appropriate media according to CLSI guidelines (1-3). Cation-Adjusted Mueller Hinton broth (CAMHB) was made by supplementing Mueller Hinton Broth (MHB; BD; Lot No. 1285575) to a final concentration of 20 mg/L Ca++ (Sigma; St. Louis, MO; Lot. No. 084K0215) and 12.5 mg/L Mg++ (VWR; Radnor, PA; Lot. No. 22C0856290). CAMHB was used for broth microdilution testing except for isolates requiring specialized media as described below.
(§5) The MIC assay method followed the procedures described by CLSI and employed automated liquid handlers to conduct serial dilutions and liquid transfers. Automated liquid handlers included the Multidrop Combi (ThermoScientific), Biomek 3000, and Biomek FX (Beckman Coulter; Fullerton, CA).
(§6) The wells in columns 2 through 12 in standard 96-well microdilution plates (Costar 3795) were filled with 150 μl of the appropriate diluent. These would become the “mother plates” from which “daughter,” or test plates, would be prepared. […]

[1] = test system: Staphylococcus epidermidis; assay: Broth microdilution MIC assay, Staphylococcus epidermidis
Experimental: as §1, §2
(§7) Test organisms consisted of isolates from the American Type Culture Collection (ATCC; Manassas, VA) and the Micromyx Repository (MMX; Kalamazoo, MI). Upon initial receipt at Microbiologics, the organisms were sub-cultured onto an appropriate agar medium and incubated under atmospheric conditions required for growth. Following incubation for 18 to 24 hr at 35° C. in the appropriate atmosphere, colonies were harvested from these plates and cell suspensions were prepared and frozen at −80° C. with a cryoprotectant. Prior to testing, isolates were streaked from frozen vials onto the appropriate agar. […]

[2] = test system: Staphylococcus saprophyticus; assay: Broth microdilution MIC assay, Staphylococcus saprophyticus; conditions: type MSS
Experimental: as §1, §2, §7

Enterococcus faecalis = assay: Broth microdilution MIC assay, Enterococcus faecalis
Experimental: as §1, §2, §3, §4, §5, §6

Enterococcus faecium = assay: Broth microdilution MIC assay, Enterococcus faecium
Experimental: as §1, §2, §7

Streptococcus pyogenes = assay: Broth microdilution MIC assay, Streptococcus pyogenes
Experimental: as §1, §2, §7

Streptococcus agalactiae = assay: Broth microdilution MIC assay, Streptococcus agalactiae
Experimental: as §1, §2, §7

[3] = test system: Streptococcus constellatus; assay: Broth microdilution MIC assay, Streptococcus constellatus; conditions: type —
Experimental: as §1, §2, §7

Streptococcus oralis = assay: Broth microdilution MIC assay, Streptococcus oralis; conditions: type ERYR
Experimental: as §1, §2, §7

Streptococcus mutans = assay: Broth microdilution MIC assay, Streptococcus mutans; conditions: type —
Experimental: as §1, §2, §7

Listeria monocytogenes = assay: Broth microdilution MIC assay, Listeria monocytogenes; conditions: type —
Experimental: as §1, §2, §7

Escherichia coli = assay: Broth microdilution MIC assay, Escherichia coli
Experimental: as §1, §2, §3
(§8) Organisms were tested in the appropriate media according to CLSI guidelines (1-3). […]

Klebsiella pneumoniae = assay: Broth microdilution MIC assay, Klebsiella pneumoniae
Experimental: as §1, §2, §7

Enterobacter cloacae = assay: Broth microdilution MIC assay, Enterobacter cloacae; conditions: type —
Experimental: as §1, §2, §7

Citrobacter freundii = assay: Broth microdilution MIC assay, Citrobacter freundii; conditions: type —
Experimental: as §1, §2, §7

Proteus mirabilis = assay: Broth microdilution MIC assay, Proteus mirabilis; conditions: type —
Experimental: as §1, §2, §7

Serratia marcescens = assay: Broth microdilution MIC assay, Serratia marcescens; conditions: type —
Experimental: as §1, §2, §7

Pseudomonas aeruginosa = assay: Broth microdilution MIC assay, Pseudomonas aeruginosa; conditions: for MIC: Pseudomonas aeruginosa
Experimental: as §1, §2, §3, §8

Acinetobacter baumannii = assay: Broth microdilution MIC assay, Acinetobacter baumannii
Experimental: as §1, §2, §3, §8

Haemophilus influenzae = assay: Broth microdilution MIC assay, Haemophilus influenzae; conditions: for MIC: Haemophilus influenzae
Experimental: as §1, §2, §3, §8

Moraxella catarrhalis = assay: Broth microdilution MIC assay, Moraxella catarrhalis
Experimental: as §1, §2, §7

Neisseria gonorrhoeae = assay: Broth microdilution MIC assay, Neisseria gonorrhoeae
Experimental: as §1, §2, §7

[4] = test system: Staphylococcus spp. and Enterococcus spp.; assay: Broth microdilution MIC assay, Staphylococcus spp. and Enterococcus spp.; conditions: all Staphylococcus spp.
Experimental: as §1, §2, §7

[5] = test system: Streptococcus spp. and L. monocytogenes; assay: Broth microdilution MIC assay, Streptococcus spp. and L. monocytogenes; conditions: all Streptococcus spp., compared with Staphylococcus spp. and Enterococcus spp.
Experimental: as §1, §2, §7

Enterobacterales = assay: Broth microdilution MIC assay, Enterobacterales; conditions: any of the Enterobacterales
Experimental: as §1, §2, §7

For `CCCCCc1cc(O)c(C/C=C(/C)CC=C(C)C)c(O)c1` [Example M194, (Z)-2-(3,6-dimethylhepta-2,5-dien-1-yl)-5-pentylbenzene-1,3-diol], the MIC (Staphylococcus aureus; MRSA, type MRSA, read-out: MIC) was 1 µg/mL (≈ 3.31 µM), the MIC (Staphylococcus aureus; MSSA, type MSSA, QC, read-out: MIC) was 2 µg/mL (≈ 6.61 µM) and the MIC (Staphylococcus aureus; MSSA, type MSSA, read-out: MIC) was 1 µg/mL (≈ 3.31 µM). For the same compound, the MIC (Staphylococcus aureus; VISA, type VISA) was 2 µg/mL (≈ 6.61 µM), the MIC ([1]; type MRSE) was 1 µg/mL (≈ 3.31 µM) and the MIC ([1]; type MSSE) was 1 µg/mL (≈ 3.31 µM). The MIC [2] was 2 µg/mL (≈ 6.61 µM), the MIC (Enterococcus faecalis; type VSE, QC, read-out: MIC) was 2 µg/mL (≈ 6.61 µM) and the MIC (Enterococcus faecalis; type VSE, read-out: MIC) was 1 µg/mL (≈ 3.31 µM). The MIC (Enterococcus faecalis; type vanA) was 1 µg/mL (≈ 3.31 µM), the MIC (Enterococcus faecalis; type vanB) was 1 µg/mL (≈ 3.31 µM) and the MIC (Enterococcus faecium; type vanA) was 1 µg/mL (≈ 3.31 µM). The MIC (Enterococcus faecium; type —, read-out: MIC) was 1 µg/mL (≈ 3.31 µM), the MIC (Streptococcus pyogenes; type ERYR) was 16 µg/mL (≈ 52.9 µM) and the MIC (Streptococcus pyogenes; type —, read-out: MIC) was 16 µg/mL (≈ 52.9 µM). The MIC (Streptococcus agalactiae; type MLS) was 16 µg/mL (≈ 52.9 µM), the MIC (Streptococcus agalactiae; type —, read-out: MIC) was 16 µg/mL (≈ 52.9 µM) and the MIC [3] was 16 µg/mL (≈ 52.9 µM). For the same compound, the MIC (Streptococcus oralis) was 32 µg/mL (≈ 106 µM), the MIC (Streptococcus mutans) was 32 µg/mL (≈ 106 µM) and the MIC (Listeria monocytogenes) was 32 µg/mL (≈ 106 µM). For the same compound, the MIC (Escherichia coli; type ESBL) was >64 µg/mL, the MIC (Escherichia coli; type NDM-1) was >64 µg/mL and the MIC (Escherichia coli; type QC, read-out: MIC) was > 64 µg/mL. The MIC (Klebsiella pneumoniae; type QC, read-out: MIC) was > 64 µg/mL, the MIC (Klebsiella pneumoniae; type —) was >64 µg/mL and the MIC (Enterobacter cloacae) was > 64 µg/mL. The MIC (Citrobacter freundii) was > 64 µg/mL, the MIC (Proteus mirabilis) was > 64 µg/mL and the MIC (Serratia marcescens) was > 64 µg/mL. For the same compound, the “in vitro activity (in words)” value (Pseudomonas aeruginosa; P. aeruginosa) was “not active”, the MIC (Pseudomonas aeruginosa; type MDR, VIM) was >64 µg/mL and the MIC (Pseudomonas aeruginosa; type QC, read-out: MIC) was > 64 µg/mL. The “in vitro activity (in words)” value (Acinetobacter baumannii) was “not active”, the MIC (Acinetobacter baumannii; type MDR) was >64 µg/mL and the MIC (Acinetobacter baumannii; type —, read-out: MIC) was > 64 µg/mL. The MIC (Haemophilus influenzae; ATCC49247, type QC (ATCC 49247 isolate)) was 4 µg/mL (≈ 13.2 µM), the “in vitro activity (in words)” value (Haemophilus influenzae; H. influenzae) was “had activity” and the MIC (Haemophilus influenzae; type BL+ (beta-lactamase positive isolate MMX 7988)) was 32 µg/mL (≈ 106 µM). For the same compound, the “in vitro activity (in words)” value (Moraxella catarrhalis) was “had activity”, the MIC (Moraxella catarrhalis; type BL+) was 2 µg/mL (≈ 6.61 µM) and the “in vitro activity (in words)” value (Neisseria gonorrhoeae; N. gonorrhoeae) was “had activity”. For the same compound, the MIC (Neisseria gonorrhoeae; Neisseria gonorrhoeae, type QC) was 1 µg/mL (≈ 3.31 µM), the “in vitro activity (in words)” value [4] was “had activity” and the “in vitro activity (in words)” value [5] was “to a lesser degree”. The “in vitro activity (in words)” value (Enterobacterales) was “not active”.

Reference: US20260125335A1, “SYNTHETIC C[…], PHARMACEUTICAL COMPOSITIONS, AND METHODS OF TREATING BACTERIAL INFECTIONS AND OTHER DISORDERS” (priority 2023, published 2026)
